# Test results from ChEMBL document CHEMBL3351703, “Probing the selective antitumor activity of 22-oxo-26-selenocyanocholestane derivatives” (Eur J Med Chem, 2014).
# The source made the active and inactive calls. No cut-off for these calls is given here.
# How the values were obtained:
# [1] = tested on: HeLa; assay: Antiproliferative activity against human HeLa cells after 24 hrs by MTT assay; format: functional, cell-based
# [2] = tested on: Ca-Ski; assay: Induction of apoptosis in human CaSki cells assessed as caspase-3 activation at 10 to 18 uM after 15 mins by DAPI staining-based epifluorescence microscopic analysis; format: functional, cell-based
# [3] = tested on: HeLa; assay: Cell cycle arrest in human HeLa cells assessed as accumulation at sub-G1 phase at IC50 after 24 hrs by propidium iodide staining-based flow cytometric analysis relative to control; format: functional
# [4] = (§1) Antiproliferative activity against human ViBo cells after 24 hrs by MTT assay; format: functional, cell-based
# [5] = tested on: ViBo; assay: as §1; format: functional, cell-based
# [6] = Cell cycle arrest in human CaSki cells assessed as accumulation at sub-G1 phase at IC50 after 24 hrs by propidium iodide staining-based flow cytometric analysis relative to control; format: functional; conditions: Ca-Ski
# [7] = Cell cycle arrest in human ViBo cells assessed as accumulation at G1 phase at IC50 after 24 hrs by propidium iodide staining-based flow cytometric analysis relative to control; format: functional
# [8] = Cell cycle arrest in human CaSki cells assessed as accumulation at G2/M phase at IC50 after 24 hrs by propidium iodide staining-based flow cytometric analysis relative to control; format: functional; conditions: Ca-Ski
# [9] = tested on: HeLa; assay: Induction of apoptosis in human HeLa cells assessed as DNA fragmentation at 10 to 18 uM after 24 hrs by TUNEL assay; format: functional, cell-based
# [10] = tested on: Ca-Ski; assay: Induction of apoptosis in human CaSki cells assessed as DNA fragmentation at 10 to 18 uM after 24 hrs by TUNEL assay; format: functional, cell-based
# [11] = tested on: Ca-Ski; assay: Induction of apoptosis in human CaSki cells assessed as effect on cell morphology; format: functional, cell-based
# [12] = Cytotoxicity against human CaSki cells at IC50 after 24 hrs by LDH release assay relative to control; format: functional, Ca-Ski
# [13] = tested on: HeLa; assay: Cell cycle arrest in human HeLa cells assessed as accumulation at S phase at IC50 after 24 hrs by propidium iodide staining-based flow cytometric analysis relative to control; format: functional
# [14] = Cell cycle arrest in human ViBo cells assessed as accumulation at G2/M phase at IC50 after 24 hrs by propidium iodide staining-based flow cytometric analysis relative to control; format: functional
# [15] = tested on: ViBo; assay: Induction of apoptosis in human ViBo cells assessed as effect on cell morphology; format: functional, cell-based
# [16] = tested on: HeLa; assay: Induction of apoptosis in human HeLa cells assessed as chromatin condensation by DAPI staining-based fluorescence microscopic analysis; format: functional, cell-based
# [17] = tested on: ViBo; assay: Induction of apoptosis in human ViBo cells assessed as caspase-3 activation at 10 to 18 uM after 15 mins by DAPI staining-based epifluorescence microscopic analysis; format: functional, cell-based
# [18] = tested on: HeLa; assay: Induction of apoptosis in human HeLa cells assessed as effect on cell morphology; format: functional, cell-based
# [19] = (§2) Antiproliferative activity against human CaSki cells after 24 hrs by MTT assay; format: functional, cell-based; conditions: Ca-Ski
# [20] = tested on: Ca-Ski; assay: as §2; format: functional, cell-based
# [21] = Cell cycle arrest in human ViBo cells assessed as accumulation at S phase at IC50 after 24 hrs by propidium iodide staining-based flow cytometric analysis relative to control; format: functional
# [22] = tested on: PBMC; assay: Immunosuppressive activity in PHA-stumulated CSFE labeled human enriched PBMC assessed as cell growth at IC50 after 72 hrs by flow cytometric analysis (reference value: 65.90%); format: functional
# [23] = Cell cycle arrest in human CaSki cells assessed as accumulation at G1 phase at IC50 after 24 hrs by propidium iodide staining-based flow cytometric analysis relative to control; format: functional; conditions: Ca-Ski
# [24] = tested on: HeLa; assay: Cytotoxicity against human HeLa cells at IC50 after 24 hrs by LDH release assay relative to control; format: functional
# [25] = tested on: HeLa; assay: Induction of apoptosis in human HeLa cells assessed as caspase-3 activation at 10 to 18 uM after 15 mins by DAPI staining-based epifluorescence microscopic analysis; format: functional, cell-based
# [26] = Cell cycle arrest in human ViBo cells assessed as accumulation at sub-G1 phase at IC50 after 24 hrs by propidium iodide staining-based flow cytometric analysis relative to control; format: functional
# [27] = Cytotoxicity against PHA-activated human lymphocytes at IC50 after 72 hrs by LDH release assay; format: cell-based; conditions: lymphocyte
# [28] = tested on: Ca-Ski; assay: Induction of apoptosis in human CaSki cells assessed as chromatin condensation by DAPI staining-based fluorescence microscopic analysis; format: functional, cell-based
# [29] = tested on: HeLa; assay: Cell cycle arrest in human HeLa cells assessed as accumulation at G2/M phase at IC50 after 24 hrs by propidium iodide staining-based flow cytometric analysis relative to control; format: functional
# [30] = tested on: ViBo; assay: Induction of apoptosis in human ViBo cells assessed as DNA fragmentation at 10 to 18 uM after 24 hrs by TUNEL assay; format: functional, cell-based
# [31] = Cytotoxicity against human ViBo cells at IC50 after 24 hrs by LDH release assay relative to control; format: functional
# [32] = tested on: HeLa; assay: Cell cycle arrest in human HeLa cells assessed as accumulation at G1 phase at IC50 after 24 hrs by propidium iodide staining-based flow cytometric analysis (reference value: 62.51 +/- 3.76%); format: functional
# [33] = tested on: ViBo; assay: Induction of apoptosis in human ViBo cells assessed as chromatin condensation by DAPI staining-based fluorescence microscopic analysis; format: functional, cell-based
# [34] = Cell cycle arrest in human CaSki cells assessed as accumulation at S phase at IC50 after 24 hrs by propidium iodide staining-based flow cytometric analysis relative to control; format: functional; conditions: Ca-Ski
# [35] = tested on: HeLa; assay: Induction of apoptosis in human HeLa cells assessed as caspase-3 activation at 95 to 97 uM after 15 mins by DAPI staining-based epifluorescence microscopic analysis; format: functional, cell-based
# [36] = tested on: ViBo; assay: Induction of apoptosis in human ViBo cells assessed as caspase-3 activation at 95 to 97 uM after 15 mins by DAPI staining-based epifluorescence microscopic analysis; format: functional, cell-based
# [37] = tested on: Ca-Ski; assay: Induction of apoptosis in human CaSki cells assessed as caspase-3 activation at 95 to 97 uM after 15 mins by DAPI staining-based epifluorescence microscopic analysis; format: functional, cell-based
# [38] = tested on: ViBo; assay: Induction of apoptosis in human ViBo cells assessed as DNA fragmentation at 95 to 97 uM after 24 hrs by TUNEL assay; format: functional, cell-based
# [39] = tested on: Ca-Ski; assay: Induction of apoptosis in human CaSki cells assessed as DNA fragmentation at 95 to 97 uM after 24 hrs by TUNEL assay; format: functional, cell-based
# [40] = tested on: HeLa; assay: Induction of apoptosis in human HeLa cells assessed as DNA fragmentation at 95 to 97 uM after 24 hrs by TUNEL assay; format: functional, cell-based
SMILES,Activity [1],IC50 [1],Activity [3],IC50 [4],Activity [5],Activity [6],Activity [7],Activity [8],Activity [11],Activity [12],Activity [13],Activity [14],Activity [15],Activity [16],Activity [18],IC50 [19],Activity [20],Activity [21],Activity [22],Activity [23],further results
CC(=O)O[C@H]1CC[C@@]2(C)C(=CC[C@H]3[C@@H]4C[C@H](OC(C)=O)[C@H]([C@H](C)C(=O)CC[C@@H](C)C[Se]C#N)[C@@]4(C)CC[C@@H]32)C1,Dose-dependent effect,10 µM,12.6%,18 µM,Dose-dependent effect,41.4%,69.5%,9.68%,Active,33%,17.04%,7.27%,Active,Active,Active,15 µM,Dose-dependent effect,8.67%,51.96%,31.2%,Activity [2]: Active; Activity [9]: Active; Activity [10]: Active; Activity [17]: Active; Activity [24]: 72%; Activity [25]: Active; Activity [26]: 8.13%; Activity [27]: Non-toxic; Activity [28]: Active; Activity [29]: 11.58%; Activity [30]: Active; Activity [31]: 45%; Activity [32]: 56.19%; Activity [33]: Active; Activity [34]: 18.9%
CC(=O)O[C@H]1CC[C@@]2(C)[C@@H](CC[C@@H]3[C@@H]2CC(=O)[C@]2(C)[C@@H]([C@H](C)C(=O)CC[C@@H](C)C[Se]C#N)[C@@H](OC(C)=O)C[C@@H]32)C1,Dose-dependent effect,95 µM,4.74%,97 µM,Dose-dependent effect,8.2%,59.3%,13.2%,Active,0%,18.54%,5.8%,Active,Active,Active,97 µM,Dose-dependent effect,16.2%,25.28%,49.2%,Activity [35]: Active; Activity [36]: Active; Activity [37]: Active; Activity [24]: 27%; Activity [26]: 10.8%; Activity [27]: Non-toxic; Activity [38]: Active; Activity [28]: Active; Activity [29]: 10.9%; Activity [39]: Active; Activity [31]: 16%; Activity [32]: 64.04%; Activity [33]: Active; Activity [34]: 19.4%; Activity [40]: Active
CC(=O)O[C@H]1C(=O)[C@@]2(C)[C@H]([C@H](OC(=O)c3ccccc3)[C@]3(O)C[C@H](OC(=O)[C@H](O)[C@@H](NC(=O)c4ccccc4)c4ccccc4)C(C)=C1C3(C)C)[C@]1(OC(C)=O)CO[C@@H]1C[C@@H]2O [PACLITAXEL],–,–,–,1.6 µM,–,–,–,–,–,–,–,–,–,–,–,2.9 µM,–,–,–,–,–
